Calls of active or inactive are those of the source. No cut-off for these calls is given here.
Legend:
Pseudomonas aeruginosa [1] = experiment: Antibacterial activity against wild-type Pseudomonas aeruginosa PAO1 assessed as bacterial growth inhibition by CLSI based broth-microdilution method; format: functional
Pseudomonas aeruginosa [2] = experiment: Antibiofilm activity against wild-type Pseudomonas aeruginosa PAO1 assessed as inhibition rate at 10 uM incubated for 24 hrs by crystal violet staining based assay relative to control; format: functional
Pseudomonas aeruginosa [3] = experiment: Antibiofilm activity against wild-type Pseudomonas aeruginosa PAO1 incubated for 24 hrs by crystal violet staining based assay; format: functional, organism-based
Pseudomonas aeruginosa [4] = experiment: Antibiofilm activity against wild-type Pseudomonas aeruginosa PAO1 at 2.5 uM incubated for 24 hrs by crystal violet staining based assay relative to control; format: functional
Pseudomonas aeruginosa [5] = experiment: Antibiofilm activity against wild-type Pseudomonas aeruginosa PAO1 at 20 uM incubated for 24 hrs by confocal laser scanning microscopy; format: functional, organism-based
Pseudomonas aeruginosa [6] = experiment: Anti-virulence effect in Pseudomonas aeruginosa PAO1 assessed as decrease in elastase level incubated for 24 hrs by fluorescence based assay; format: functional, organism-based; conditions: dose 1.25-20 µM
Pseudomonas aeruginosa [7] = experiment: Anti-virulence effect in Pseudomonas aeruginosa PAO1 assessed as decrease in pyocyanin level incubated for 48 hrs by absorbance based assay; format: functional, organism-based; conditions: dose 1.25-20 µM
Pseudomonas aeruginosa [8] = experiment: Effect on rhamnolipid level in Pseudomonas aeruginosa PAO1 at 1.25 to 20 uM incubated for 24 hrs by absorbance based assay; format: functional, organism-based; conditions: dose 1.25-20 µM
[9] = Inhibition of quorum sensing system in Pseudomonas aeruginosa PAO1 harboring lasB-gfp assessed as decrease in lasB expression measured for 12 hrs by fluorescence based assay; conditions: dose 1.25-20 µM
[10] = Inhibition of quorum sensing system in Pseudomonas aeruginosa PAO1 harboring pqsA-gfp assessed as decrease in pqsA expression measured for 12 hrs by fluorescence based assay; conditions: dose 1.25-20 µM
Pseudomonas aeruginosa [11] = experiment: Effect on rhlA expression in Pseudomonas aeruginosa PAO1 harboring rhlA-gfp at 1.25 to 20 uM measured for 12 hrs by fluorescence based assay; format: functional; conditions: dose 1.25-20 µM
Pseudomonas aeruginosa [12] = experiment: Inhibition of swarming motility in Pseudomonas aeruginosa PAO1 incubated for 16 hrs; format: functional, organism-based; conditions: dose 1.25-20 µM
[13] = Cytotoxicity against African green monkey Vero cells assessed as cell viability at 3.125 to 50 uM incubated for 24 hrs by MTT assay; format: toxicity, cell-based; conditions: chlorocebus sabaeus, dose 3.125-50 µM
Vero = experiment: Anti-virulence effect in African green monkey Vero cells infected with Pseudomonas aeruginosa assessed as increase in cell survival incubated for 24 hrs by MTT assay; format: functional, cell-based; conditions: Chlorocebus sabaeus, dose <= 20.0 µM
[14] = Anti-virulence effect in African green monkey Vero cells infected with Pseudomonas aeruginosa assessed as cell survival at 20 uM incubated for 24 hrs by MTT assay (reference value: 37.7 %); format: functional; conditions: Chlorocebus sabaeus, read-out: Activity
Pseudomonas aeruginosa [15] = experiment: Synergistic activity against Pseudomonas aeruginosa PAO1 assessed as reduction in ciprofloxacin MIC […] at 20 uM relative to control; format: functional; parameters: scale not given: the % may be the effect or the level left

Row | SMILES | MIC (Pseudomonas aeruginosa [1]) [µM] | inhibition at 10 µM (Pseudomonas aeruginosa [2]) [%] | further results
1 | Cc1cc(=O)c(O)c(CNC(=O)CSc2ccccn2)n1C | > 128 |  | 
2 | Cc1cccc2sc(SCC(=O)NCc3c(O)c(=O)cc(C)n3C)nc12 | > 128 | 20.8 | 
3 | Cc1cc(=O)c(O)c(CNC(=O)CSc2nc3cc(F)ccc3s2)n1C | > 128 | 5 | 
4 | Cc1cc(C)nc(SCC(=O)NCc2c(O)c(=O)cc(C)n2C)n1 | > 128 | 22.6 | 
5 | Cn1cc(O)c(=O)cc1CNC(=O)CSc1nc2ccccc2s1 | > 128 | -5.24 | 
6 | Cn1cc(O)c(=O)cc1CNC(=O)CSc1nc2ccccc2[nH]1 | > 128 |  | 
7 | Cc1cc(=O)c(O)c(CNC(=O)CSc2nc3ccc(F)cc3o2)n1C | > 128 | 25.4 | 
8 | Cc1cc(=O)c(O)c(CNC(=O)CSc2nc3ccccc3o2)n1C | > 128 | 26.2 | 
9 | COc1ccc(SCC(=O)NCc2c(O)c(=O)cc(C)n2C)cc1 | > 128 | -13.6 | 
10 | Cn1cc(O)c(=O)cc1CNC(=O)CSc1nc2ccc([N+](=O)[O-])cc2s1 | > 128 | 29.1 | 
11 | COc1ccc2sc(SCC(=O)NCc3c(O)c(=O)cc(C)n3C)nc2c1 | > 128 | 7.27 | 
12 | Cn1cc(O)c(=O)cc1CNC(=O)CSc1nc2cc([N+](=O)[O-])ccc2[nH]1 | > 128 | -15.2 | 
13 | Cc1cc(=O)c(O)c(CNC(=O)CSc2nc3c([N+](=O)[O-])cccc3o2)n1C | > 128 | 30.6 | 
14 | Cc1cc(=O)c(O)c(CNC(=O)CSc2nc3cc([N+](=O)[O-])ccc3s2)n1C | > 128 | 10.1 | 
15 | Cc1cc(=O)c(O)c(CNC(=O)CSc2ncccn2)n1C | > 128 | 7.18 | 
16 | Cc1cc(=O)c(O)c(CNC(=O)CSc2nc3cc(OC(F)F)ccc3[nH]2)n1C | > 128 | 17.6 | 
17 | Cc1cc(=O)c(O)c(CNC(=O)CSc2nc3cc(C#N)ccc3[nH]2)n1C | > 128 | 41.3 | 
18 | COc1ccc2[nH]c(SCC(=O)NCc3c(O)c(=O)cc(C)n3C)nc2c1 | > 128 | 16.3 | 
19 | Cc1cc(=O)c(O)c(CNC(=O)CSc2nc3cc(Cl)ccc3[nH]2)n1C | > 128 |  | 
20 | Cc1cc(=O)c(O)c(CNC(=O)CSc2nc3cc(F)ccc3[nH]2)n1C | > 128 | 34.7 | 
21 | COc1ccc2nc(SCC(=O)NCc3c(O)c(=O)cc(C)n3C)sc2c1 | > 128 | -22.4 | 
22 | Cc1cc(=O)c(O)c(CNC(=O)CSc2ccncc2)n1C | > 128 |  | 
23 | Cc1cc(=O)c(O)c(CNC(=O)CSc2nc3ccc(F)cc3s2)n1C | > 128 | 40.4 | 
24 | Cc1cc(=O)c(O)c(CNC(=O)CSc2nc3c(C(C)(C)C)cccc3o2)n1C | > 128 | 19.4 | 

Row | SMILES | MIC (Pseudomonas aeruginosa [1]) [µM] | inhibition at 10 µM (Pseudomonas aeruginosa [2]) [%] | further results
25 | Cc1cc(=O)c(O)c(CNC(=O)CSc2nc3cc(Cl)ccc3o2)n1C | > 128 | 41.7 | 
26 | Cc1cc(=O)c(O)c(CNC(=O)CSc2nc3c(F)cccc3o2)n1C | > 128 | 27.6 | 
27 | Cc1cc(=O)c(O)c(CNC(=O)CSc2nncs2)n1C | > 128 | 16.9 | 
28 | Cc1cc(=O)c(O)c(CNC(=O)CSc2ccc([N+](=O)[O-])cc2)n1C | > 128 | 31.9 | 
29 | Cc1cc(=O)c(O)c(CNC(=O)CSc2nc3ccccc3s2)n1C | > 128 | 22.1 | 
30 | Cc1cccc2oc(SCC(=O)NCc3c(O)c(=O)cc(C)n3C)nc12 | > 128 |  | 
31 | Cc1cc(=O)c(O)c(CNC(=O)CSc2nc3cc([N+](=O)[O-])ccc3[nH]2)n1C | > 128 | 51.5 | IC50 (Pseudomonas aeruginosa [3]; PAO1, 24 h): 10.6 µM; Activity (Pseudomonas aeruginosa [3]; dose 1.25-20 µM): Dose-Dependent Effect; inhibition at 2.5 µM (Pseudomonas aeruginosa [4]): > 30%; Activity (Pseudomonas aeruginosa [5]): Active; Activity (Pseudomonas aeruginosa [6]): Dose-Dependent Effect; Activity (Pseudomonas aeruginosa [7]): Dose-Dependent Effect; Activity (Pseudomonas aeruginosa [8]): inactive; inhibition [9]: Dose-Dependent Effect; inhibition [10]: Dose-Dependent Effect; Activity (Pseudomonas aeruginosa [11]): inactive; inhibition (Pseudomonas aeruginosa [12]): Dose-Dependent Effect; Activity [13]: Non-Toxic; Activity (Vero): Dose-Dependent Effect; viability at 20 µM [14]: 71.5%; Activity (Pseudomonas aeruginosa [15]): ~50%
32 | Cc1ccc2[nH]c(SCC(=O)NCc3cc(=O)c(O)cn3C)nc2c1 | > 128 | 3.29 | 
33 | Cc1cc(=O)c(O)c(CNC(=O)CSc2ncc[nH]2)n1C | > 128 | 46.1 | 
34 | Cc1ccc2oc(SCC(=O)NCc3c(O)c(=O)cc(C)n3C)nc2c1 | > 128 | 45.8 | 
35 | Cc1nnc(SCC(=O)NCc2c(O)c(=O)cc(C)n2C)s1 | > 128 | -10.2 | 
36 | Cc1cc(=O)c(O)c(CNC(=O)CSc2nc3cc(C(F)(F)F)ccc3[nH]2)n1C | > 128 |  | 
37 | Cc1ccc2[nH]c(SCC(=O)NCc3c(O)c(=O)cc(C)n3C)nc2c1 | > 128 | 7.4 | 
38 | COc1ccc2oc(SCC(=O)NCc3c(O)c(=O)cc(C)n3C)nc2c1 | > 128 | 19.6 | 
39 | Cc1cc(=O)c(O)c(CNC(=O)CSc2nc3c(C(C)(C)C)cccc3[nH]2)n1C | > 128 | 14.5 | 
40 | CCOc1ccc2[nH]c(SCC(=O)NCc3c(O)c(=O)cc(C)n3C)nc2c1 | > 128 | -17.5 | 
41 | Cc1cc(=O)c(O)c(CNC(=O)CSc2nccn2C)n1C | > 128 | 30 | 
42 | Cc1cc(=O)c(O)c(CNC(=O)CSc2nc3cc(C(F)(F)F)ccc3o2)n1C | > 128 | 39.5 | 
43 | Cc1ccc2nc(SCC(=O)NCc3c(O)c(=O)cc(C)n3C)sc2c1 | > 128 | 31.2 | 
44 | Cc1cc(=O)c(O)c(CNC(=O)CSc2nc3cc(Cl)ccc3s2)n1C | > 128 | 5.12 | 
45 | Cc1cc(=O)c(O)c(CNC(=O)CSc2nc3ccc([N+](=O)[O-])cc3s2)n1C | > 128 | 45.5 | 
46 | Cc1cc(=O)c(O)c(CNC(=O)CSc2nccs2)n1C | > 128 | 46.4 | 
47 | Cc1cc(=O)c(O)c(CNC(=O)CSc2nc3ccccc3[nH]2)n1C | > 128 | 44.6 | 

— ChEMBL document CHEMBL5625198, “Design, synthesis and biological evaluation of novel 3-hydroxypyridin-4(1H)-ones based hybrids as Pseudomonas aeruginosa biofilm inhibitors” (Eur J Med Chem, 2023)
